Experimental data from patent US10596103B2, “Drug delivery system for delivery of anti-virals” (Merck Sharp & Dohme B.V., priority 2013, dated 2020).

Assay: Solubility of vicriviroc in EVA by partitioning experiments
Format: physicochemical
Protocol: The solubility of vicriviroc in EVA was determined by partitioning experiments. A small sample of polymer film (approximately 10 mg) was immersed in a saturated aqueous vicriviroc solution (5 mL PBS buffer pH 7). Once the film was immersed the drug diffused from the saturated solution into the film until an equilibrium was achieved. As a result the drug concentration of the aqueous solution decreased and the drug concentration in the film increased. The decrease of the drug concentration in the aqueous solution was continuously measured with a fiber optic probe (Rainbow Dynamic Dissolution Monitor).

Vicriviroc loading above which supersaturation occurs (in EVA 28): above 1.4 % by weight | Solubility of vicriviroc in EVA 28 (polymer film in saturated aqueous vicriviroc solution, PBS buffer pH 7, FIG. 14): 1.2-1.4 wt %
Compound: COC[C@@H](c1ccc(C(F)(F)F)cc1)N1CCN(C2(C)CCN(C(=O)c3c(C)ncnc3C)CC2)C[C@@H]1C [vicriviroc]
